Patent US10570179B2, “Substituted urea depsipeptide analogs as activators of the CLPP endopeptidase” (priority 2016, dated 2020)
Numbered stars: 1 amine (or outer) side, 2 acyl side, 3 side chain; on linkers, the order of the positions; unused ones are H or OH. Bridge positions count the residues as written; N and C are the ends. Square brackets hold non-standard residues; d marks the D form. Peptide text beside a SMILES is read from it. * marks the point of attachment. Piperazine(2S-CO,4-Me) = CN1CCN[C@H](C(=O)O)C1; NH(1,3-benzodioxol-5-yl) = c1cc2c(cc1N*)OCO2; Phe(3,5-F2) = N[C@@H](Cc1cc(F)cc(F)c1)C(=O)O; NH(1-Me-indolin-5-yl) = CN1CCc2cc(N*)ccc21; Morpholine(3S-CO) = O=C(O)[C@@H]1COCCN1; Phe(3-Me) = Cc1cccc(C[C@H](N)C(=O)O)c1; NH(4-Cl-2-F-phenyl) = Fc1cc(Cl)ccc1N*; Pro(4R-Me) = C[C@H]1CN[C@H](C(=O)O)C1; X1 = O=C([C@@H]1CSCCN1[*:1])[*:2]; Hyp = O=C(O)[C@@H]1C[C@@H](O)CN1; NH(4-Et-phenyl) = CCc1ccc(N*)cc1; NH(4-Me-phenyl) = Cc1ccc(N*)cc1; aThr = C[C@H](O)[C@H](N)C(=O)O; Pip = O=C(O)[C@@H]1CCCCN1; X3 = c1cc2c(cc1N*)OCCO2; CO = O=C([*:1])[*:2]

Key:
S. aureus ΔClpP = experiment: Minimal inhibitory concentration, microbroth dilution; format: cell-based, Staphylococcus aureus; conditions: MIC; ClpP inactivated
Summary of the method: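 MICs were determined by CLSI broth microdilution, using two-fold compound dilutions from a final 200 μM and about 10^5 cfu/mL inoculum. Plates were incubated aerobically at 37 °C overnight. The MIC was read visually as the lowest concentration preventing growth.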

[1] = Microsomal metabolic stability; format: in vitro ADME, human
[2] = Plasma protein binding, rapid equilibrium dialysis; format: in vitro ADME, human; conditions: 10 μM
Summary of the method: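 Compound spiked at 10 μM (0.1% DMSO) into human plasma, dialysed against DPBS pH 7.4 across 8 K MWCO RED membrane for 4 h at 37 °C with shaking. Both chambers quantified by LC-MS against warfarin internal standard; % free = buffer/plasma concentration ×100, % bound = 100 − % free.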

[3] = microsomal metabolic stability half-life, human liver microsomes
[4] = plasma binding, % Bound, human plasma

Compound | Minimal Inhibitory Concentrations (μM) S. aureus ΔClpP (S. aureus ΔClpP) [µM] | Human [1, 3] | Human [2, 4] [%] | Human ([1]; human, pH 7.4) | Human ([2]; human, 4 h, pH 7.4) [%]
Cc1ccc(NC(=O)N[C@@H](Cc2cccc(C)c2)C(=O)N[C@@H]2C(=O)N3C[C@H](O)C[C@H]3C(=O)N3CCN(C)C[C@H]3C(=O)N[C@@H](C)C(=O)N3C[C@H](C)C[C@H]3C(=O)O[C@H]2C)cc1 [Compound 30, (S)—N-((6AS,8R,12S,13S,15AS,17R,21S,23AS)-8-HYDROXY-2,13,17,21-TETRAMETHYL-6,11,15,20,23-PENTAOXOOCTADECAHYDRO-2H,6H,11H,15H-PYRAZINO[2,1-I]DIPYRROLO[2,1-C:2′,1′-L][1]OXA[4,7,10,13]TETRAAZACYCLOHEXADECIN-12-YL)-3-(M-TOLYL)-2-(3-(P-TOLYL)UREIDO)PROPANAMIDE] ({NH(4-Me-phenyl)-CO}-[Phe(3-Me)][aThr][Hyp][Piperazine(2S-CO,4-Me)]A[Pro(4R-Me)]; ester 2-C) | >20 | 1.30 ± .305 h | 94.8 ± 4.8 | – | –
Cc1cccc(C[C@H](NC(=O)Nc2ccc(Cl)cc2F)C(=O)N[C@@H]2C(=O)N3CCC[C@H]3C(=O)N3CCSC[C@H]3C(=O)N[C@@H](C)C(=O)N3C[C@H](C)C[C@H]3C(=O)O[C@H]2C)c1 [Compound 38, (S)-2-(3-(4-CHLORO-2-FLUOROPHENYL)UREIDO)-3-(M-TOLYL)-N-((6AS,12S,13S,15AS,17R,21S,23AR)-13,17,21-TRIMETHYL-6,11,15,20,23-PENTAOXOOCTADECAHYDRO-6H,11H,15H-DIPYRROLO[2,1-C:2′,1′-L][1,4]THIAZINO[3,4-I][1]OXA[4,7,10,13]TETRAAZACYCLOHEXADECIN-12-YL)PROPANAMIDE] ({NH(4-Cl-2-F-phenyl)-CO}-[Phe(3-Me)][aThr]P[X1]A[Pro(4R-Me)]; ester 2-C) | >20 | – | – | 1.00 ± .003 h | 99.5 ± 9.5
CCc1ccc(NC(=O)N[C@@H](Cc2cccc(C)c2)C(=O)N[C@H]2COC(=O)[C@@H]3C[C@@H](C)CN3C(=O)[C@H](C)NC(=O)[C@@H]3CN(C)CCN3C(=O)[C@@H]3CCCN3C2=O)cc1 [Compound 16, (S)-2-(3-(4-ETHYLPHENYL)UREIDO)-3-(M-TOLYL)-N-((6AS,12S,15AS,17R,21S,23AS)-2,17,21-TRIMETHYL-6,11,15,20,23-PENTAOXOOCTADECAHYDRO-2H,6H,11H,15H-PYRAZINO[2,1-I]DIPYRROLO[2,1-C:2′,1′-L][1]OXA[4,7,10,13]TETRAAZACYCLOHEXADECIN-12-YL)PROPANAMIDE] ({NH(4-Et-phenyl)-CO}-[Phe(3-Me)]SP[Piperazine(2S-CO,4-Me)]A[Pro(4R-Me)]; ester 2-C) | >20 | – | – | 0.86 ± 0.07 h | 98.5 ± 0.3
Cc1ccc(NC(=O)N[C@@H](Cc2cccc(C)c2)C(=O)N[C@@H]2C(=O)N3C[C@H](O)C[C@H]3C(=O)N3CCCC[C@H]3C(=O)N[C@@H](C)C(=O)N3C[C@H](C)C[C@H]3C(=O)O[C@H]2C)cc1 [Compound 26, (S)—N-((2R,6S,8AS,14AS,16R,20S,21S,23AS)-16-HYDROXY-2,6,21-TRIMETHYL-5,8,14,19,23-PENTAOXOOCTADECAHYDRO-1H,5H,14H,19H-PYRIDO[2,1-I]DIPYRROLO[2,1-C:2′,1′-L][1]OXA[4,7,10,13]TETRAAZACYCLOHEXADECIN-20-YL)-3-(M-TOLYL)-2-(3-(P-TOLYL)UREIDO)PROPANAMIDE] ({NH(4-Me-phenyl)-CO}-[Phe(3-Me)][aThr][Hyp][Pip]A[Pro(4R-Me)]; ester 2-C) | >20 | 2.66 ± 0.3 h | 98.8 ± 0.1 | – | –
Cc1cccc(C[C@H](NC(=O)Nc2ccc(Cl)cc2F)C(=O)N[C@@H]2C(=O)N3CCC[C@H]3C(=O)N3CCN(C)C[C@H]3C(=O)N[C@@H](C)C(=O)N3C[C@H](C)C[C@H]3C(=O)O[C@H]2C)c1 [Compound 11, (S)-2-(3-(4-CHLORO-2-FLUOROPHENYL)UREIDO)-N-((6AS,12S,13S,15AS,17R,21S,23AS)-2,13,17,21-TETRAMETHYL-6,11,15,20,23-PENTAOXOOCTADECAHYDRO-2H,6H,11H,15H-PYRAZINO[2,1-I]DIPYRROLO[2,1-C:2′,1′-L][1]OXA[4,7,10,13]TETRAAZACYCLOHEXADECIN-12-YL)-3-(M-TOLYL)PROPANAMIDE] ({NH(4-Cl-2-F-phenyl)-CO}-[Phe(3-Me)][aThr]P[Piperazine(2S-CO,4-Me)]A[Pro(4R-Me)]; ester 2-C) | >20 | – | – | 0.91 ± 0.10 h | 97.9 ± 0.3
C[C@@H]1C[C@H]2C(=O)O[C@@H](C)[C@H](NC(=O)[C@H](Cc3cc(F)cc(F)c3)NC(=O)Nc3ccc4c(c3)CCN4C)C(=O)N3CCC[C@H]3C(=O)N3CCOC[C@H]3C(=O)N[C@@H](C)C(=O)N2C1 [Compound 32] ({NH(1-Me-indolin-5-yl)-CO}-[Phe(3,5-F2)][aThr]P[Morpholine(3S-CO)]A[Pro(4R-Me)]; ester 2-C) | >20 | 2.66 ± .66 h | 83.0 ± 3.0 | – | –
Cc1cccc(C[C@H](NC(=O)Nc2ccc3c(c2)OCCO3)C(=O)N[C@@H]2C(=O)N3C[C@H](O)C[C@H]3C(=O)N3CCOC[C@H]3C(=O)N[C@@H](C)C(=O)N3C[C@H](C)C[C@H]3C(=O)O[C@H]2C)c1 [Compound 27, (S)-2-(3-(2,3-DIHYDROBENZO[B][1,4]DIOXIN-6-YL)UREIDO)-N-((6AS,8R,12S,13S,15AS,17R,21S,23AS)-8-HYDROXY-13,17,21-TRIMETHYL-6,11,15,20,23-PENTAOXOOCTADECAHYDRO-6H,11H,15H-[1,4]OXAZINO[3,4-I]DIPYRROLO[2,1-C:2′,1′-L][1]OXA[4,7,10,13]TETRAAZACYCLOHEXADECIN-12-YL)-3-(M-TOLYL)PROPANAMIDE] ({X3-CO}-[Phe(3-Me)][aThr][Hyp][Morpholine(3S-CO)]A[Pro(4R-Me)]; ester 2-C) | >20 | – | – | 0.49 ± .495 h | 91.1 ± 1.1
Cc1cccc(C[C@H](NC(=O)Nc2ccc3c(c2)OCO3)C(=O)N[C@H]2COC(=O)[C@@H]3C[C@@H](C)CN3C(=O)[C@H](C)NC(=O)[C@@H]3CN(C)CCN3C(=O)[C@@H]3CCCN3C2=O)c1 [Compound 17, (S)-2-(3-(BENZO[D][1,3]DIOXOL-5-YL)UREIDO)-3-(M-TOLYL)-N-((6AS,12S,15AS,17R,21S,23AS)-2,17,21-TRIMETHYL-6,11,15,20,23-PENTAOXOOCTADECAHYDRO-2H,6H,11H,15H-PYRAZINO[2,1-I]DIPYRROLO[2,1-C:2′,1′-L][1]OXA[4,7,10,13]TETRAAZACYCLOHEXADECIN-12-YL)PROPANAMIDE] ({NH(1,3-benzodioxol-5-yl)-CO}-[Phe(3-Me)]SP[Piperazine(2S-CO,4-Me)]A[Pro(4R-Me)]; ester 2-C) | >20 | – | – | 1.58 ± 0.25 h | 95.4 ± 1.1
CCc1ccc(NC(=O)N[C@@H](Cc2cccc(C)c2)C(=O)N[C@@H]2C(=O)N3C[C@H](O)C[C@H]3C(=O)N3CCOC[C@H]3C(=O)N[C@@H](C)C(=O)N3C[C@H](C)C[C@H]3C(=O)O[C@H]2C)cc1 [Compound 24, (S)-2-(3-(4-ETHYLPHENYL)UREIDO)-N-((6AS,8R,12S,13S,15AS,17R,21S,23AS)-8-HYDROXY-13,17,21-TRIMETHYL-6,11,15,20,23-PENTAOXOOCTADECAHYDRO-6H,11H,15H-[1,4]OXAZINO[3,4-I]DIPYRROLO[2,1-C:2′,1′-L][1]OXA[4,7,10,13]TETRAAZACYCLOHEXADECIN-12-YL)-3-(M-TOLYL)PROPANAMIDE] ({NH(4-Et-phenyl)-CO}-[Phe(3-Me)][aThr][Hyp][Morpholine(3S-CO)]A[Pro(4R-Me)]; ester 2-C) | >20 | – | – | 4.89 ± 0.67 h | 97.7 ± 0.2
